Measurements: patent US11491117B2, “Compounds for the prevention and treatment of glucose intolerance related conditions and obesity” (SORBONNE UNIVERSITÉ, priority 2017, dated 2022)

Experiments:
[1] = test system: C57BL/6J mice fed control chow diet (CHD) or high fat diet (HFD); experiment: Chronic subcutaneous infusion in mice fed control chow or high fat diet: body growth, glucose homeostasis (IPGTT), insulin secretion, organ weight, liver triglycerides; format: in vivo, mouse
Description: Six weeks-old C57BL/6J male mice (Janvier Labs, Courtaboeuf, France) were received and acclimated in specific pathogen free (SPF) maintenance condition. Mice had free access to a standard chow diet (R04-40, Safe, Augy, France) and were kept on 12 h light/dark cycle. After one week, a group of 12 mice was fed control carbohydrate diet (CHD) (D 12450Ki, Research diets, NJ) and a group of 12 mice was fed high fat (60% fat and sucrose) diet (HFD) (D12492i, Research diets, NJ).
After three weeks of metabolite treatment (i.e. four weeks of HFD feeding) an intra-peritoneal glucose tolerance test (IPGTT) (2 g/kg) was performed in conscious mice following an overnight fast. Blood was collected from the tail vein before glucose injection and 15, 30, 60 and 120 minutes afterwards. Additional blood samples were collected during the IPGTT in GK rats 15, 90, 180 and 240 minutes after glucose injection. Blood glucose levels were determined using an Accu-Check® Performa (Roche Diagnostics, Meylan, France). Additional blood samples were collected at base line and 30 minutes after glucose injection in Microvette® CB 300 Lithium Heparin (Sarstedt, Marnay, France). Plasma was separated by centrifugation and stored at −80° C. until insulin radioimmunoassay. Evaluation of overall glucose tolerance was obtained from cumulative glycemia (GCum) and the ΔG, which were determined by the total increment of plasma glucose values during the IPGTT (GCum) and the cumulative glycemia during the test above baseline (ΔG). After six weeks of metabolite treatment, mice were killed by decapitation and organ were dissected and weighed. Half of liver, fat and pancreas samples were snap frozen in liquid nitrogen and stored at −80° C. for molecular studies, and the second half processed for histopathology. All procedures were authorized following review by the institutional ethic committee and carried out under national license condition (Ref 00486.02).
(§1) Blood glucose was measured using an Accu-Check® Performa (Roche Diagnostics, Meylan, France) and plasma insulin was determined using Insulin ELISA kits (Mercodia, Uppsala, Sweden). For determination of liver triglycerides, liver samples (100 mg) were homogenized and incubated in NonidetP-40 (5%) and supernatants containing triglycerides were collected. Triglycerides concentration was quantified in the supernatant fraction using a colorimetric assay (ab65336, Abcam, Paris, France) by measuring OD at 570 nm. The ratio NAD/NADH was determined using a quantification kit (MAK037; SigmaAldrich, St Quentin, France) on extracts prepared from 20 mg pancreas tissue. Samples were homogenized in the extraction buffer and clarified by centrifugation. Supernatant was deproteinized by filtration through a 10-kDa cutoff spin filter (Millipore SAS, Molsheim, France). The assay was then performed according to the manufacturer's instructions.
As expected, mice fed HFD rapidly gained more weight than mice fed control diet and developed fasting hyperglycemia and marked glucose intolerance (FIG. 1A-1F).

pancreas gene expression = experiment: Quantitative RT-PCR and NAD/NADH in total pancreas of chronically treated mice; format: in vivo, mouse
Description: as §1, with “SigmaAldrich, St Quentin, France) on extracts prepared from 20 mg pancreas tissue.” left out, “instructions. RNA was extracted from pancreas, adipose tissue and liver using the RNeasy RNA Mini Kit (Qiagen, Courtaboeuf, France). Reverse transcription was performed from a 20 μL reaction mixture with 500 ng RNA using M-MLV reverse transcriptase kit (ThermoFisher, Villebon, France). Quantitative RT-PCR was performed using sequence specific primers and the MESA green kit for SYBR green assays (Eurogentec, Angers, France). We used 18S and/or cyclophilin house keeping genes to normalize relative quantification of mRNA levels using the Livak and […] methods ([…], 2001).” for “instructions.”

[2] = mice fed control diet, IPGTT, vs saline
[3] = CHD-fed mice, not statistically significant

Question: For `Cc1ccc(O)cc1` [4-cresol], which “effect on body weight” value ([1]; HFD-fed mice) is on record?
Answer: strongly significant

Question: And the “effect on glycemic control” value ([1]; HFD-fed mice)?
Answer: strongly significant

Question: And the “effect on insulin secretion” value ([1]; HFD-fed mice)?
Answer: strongly significant

Question: What about the liver weight ([1]; HFD-fed mice) of the same compound?
Answer: reduced

Question: And the ΔG parameter ([1]; HFD-fed mice, IPGTT, vs HFD saline)?
Answer: normalized to the level of mice fed chow diet and treated with saline

Question: And the fasting glycemia ([1]; HFD-fed mice, vs HFD saline)?
Answer: strong reduction

Question: What about the fasting hyperinsulinemia ([1]; HFD-fed mice, vs HFD saline) of the same compound?
Answer: strong reduction

Question: And the “increase in pancreas weight” value ([1]; both diet groups, 6 weeks, vs saline)?
Answer: 48.9%

Question: What about the liver triglycerides content ([1]; both diet groups, vs saline) of the same compound?
Answer: systematic and dramatic reduction

Question: And the heart weight ([1]; mice fed CHD or HFD, 6 weeks)?
Answer: not affected

Question: And the kidney weight ([1]; mice fed CHD or HFD, 6 weeks)?
Answer: not affected

Question: What about the “acute glycemic response to the glucose challenge” value [1, 2] of the same compound?
Answer: significant reduction

Question: And the glucose tolerance [1, 2]?
Answer: improved

Question: And the BMI ([1]; mice fed control diet, end of experiment, vs saline)?
Answer: significant decrease in BMI

Question: What about the body weight ([1]; mice fed control diet, s.c. infusion 0.5 mg/kg/day, 42 days, vs saline) of the same compound?
Answer: progressive reduction in body weight

Question: And the glucose-stimulated insulin secretion ([1]; mice fed control diet, vs controls)?
Answer: significant increase

Question: What about the “cumulative glycemia during the IPGTT” value ([1]; mice fed control diet, vs saline) of the same compound?
Answer: significant reduction

Question: What about the “expression of Ins1 and Hnf1α in pancreas” value (pancreas gene expression; [3]) of the same compound?
Answer: Enhanced expression

Question: What about the “expression of Ucp2 in pancreas” value (pancreas gene expression; [3]) of the same compound?
Answer: reduced expression

Question: And the “transcription of genes encoding amylase, Vegf, Bdnf, IL10 and Sirt1 in pancreas” value (pancreas gene expression; CHD-fed mice, vs saline-treated CHD-fed mice)?
Answer: increased transcription

Question: And the “IL10 transcript level in pancreas” value (pancreas gene expression; HFD-fed mice)?
Answer: remained elevated

Question: And the “expression of Bdnf, Hnf1α, Pdx1 and Vegf in pancreas” value (pancreas gene expression; HFD-fed mice, differences not statistically significant)?
Answer: strongly overexpressed

Question: What about the “pancreatic expression of ERα” value (pancreas gene expression; fat fed mice in vivo) of the same compound?
Answer: does not regulate significantly

Question: And the “expression of Ucp2, IL6 and Tnf in pancreas” value (pancreas gene expression; mice fed HFD, vs HFD saline)?
Answer: significantly reduced expression

Question: And the “expression of genes encoding Sirt1 and Ins1 in pancreas” value (pancreas gene expression; mice fed HFD, vs HFD saline)?
Answer: significant overexpression

Question: What about the DYRK1A pancreatic transcription (pancreas gene expression; mice fed control or HFD, chronic treatment) of the same compound?
Answer: significant downregulation
